Data set [1] concerns Miapaca2, Panc-1, CAPAN1, CAPAN2, ASPC-1, SNU-213, SNU-324, or BXPC-3 cells. Put plainly: SRB assay, combined treatment with gossypol, phenformin and anti-cancer agent (triple combination). The class given is cell-based. To be noted: 48 hours; compared with group given gossypol or phenformin alone; gossypol 2.5 or 5 μM, phenformin 100 μM, irinotecan 1 μM. Here is the method:
Specifically, Miapaca2, Panc-1, CAPAN1, CAPAN2, ASPC-1, SNU-213, SNU-324, or BXPC-3 cells were cultured. Each type of the cultured cells was treated with gossypol, phenformin, or irinotecan alone, or with a mixed drug thereof. […] As a control group, an untreated group with no drug treatment was used, and a relative cell proliferation level in each drug-treated group was expressed and calculated as a percentage as compared with the control group.
A general note: The SRB assay estimates cell density from bound dye.

Data set [2] is described as follows: Pancreatic cancer mouse model, body weight. To be noted: oral once a day, 61 days; compared among experimental groups. As for the experimental part: (§1) First, 6- to 8-week-old Balb/c-nu mice (Central Lab. Animal, Highland Heights, Ky., USA) were prepared to make a pancreatic cancer mouse model. In addition, Miapaca2 pancreatic cancer cell line was cultured at 5.0×10^6 cells, and subcutaneously injected into the prepared mice with a 1-ml syringe. The mice were bred for 2 weeks, and divided into four groups in total, with each group containing 6 mice. The four groups were used as a solvent control group (10% DMSO, 40% PEG, 50% PBS), a group in which 40 mg/kg/100 μl of gossypol is administered alone, a group in which 100 mg/kg/100 μl of phenformin is administered alone, and a group in which gossypol+phenformin are administered in combination, respectively. To each mouse group was orally administered once a day the solvent or the drug, and the mice were bred in the same environment for a total of 61 days.
(§2) While breeding the mice, body weights and tumor sizes in each mouse group were checked every 3 days and averaged. A size of the initial tumor after injection of pancreatic cancer cells was determined using a caliper. A tumor volume was calculated using the following Equation 1.

Data set [3] has as its system Miapaca2 pancreatic cancer cell line. Put plainly: Pancreatic cancer mouse model (xenograft), tumor volume and weight. The class given is in vivo, Balb/c-nu mice. The note with it: gossypol 40 mg/kg, phenformin 100 mg/kg, oral once a day, alone or combined; compared with solvent control. As for the experimental part:
as §1, §2

Data set [4] concerns Miapaca2, Panc-1, or Aspc-1 cells. The note with it: applied alone at low drug concentration (gossypol 5 or 10 μM; phenformin 100 or 500 μM).
Experimental: (§3) Specifically, each type of various pancreatic cancer cell lines, Miapaca-2, Panc-1, Aspc-1, SNU-410, SNU-324, and Bxpc-3 cells, was cultured, during which each type of cells was inoculated into a 96-well plate at a density of 5,000 to 20,000 cells/well depending on an amplification period of culture time. After inoculation, gossypol or phenformin was added to each well and incubated in a CO2 incubator for 24 hours. Then, the cells were fixed by adding 50% (w/v) cooled trichloroacetic acid (TCA) to each well so as to become a final concentration of 10%. The supernatant other than the fixed cells was removed and the plate was washed about five times with tap water and then air dried. After drying, 0.4% (w/v) sulforhodamine B buffer solution containing 1% acetic acid was added to each well, and the plate was left to stand at room temperature for 10 minutes so that the cells were stained. After staining the cells, the plate was washed 5 times with 1% acetic acid to remove unstained dye, and then air dried. The stained dye was immobilized with 10 mM trizma base, and then absorbance was measured at 515 nm using a plate reader.
Specifically, Miapaca2, Panc-1, or Aspc-1 cells were cultured. Each type of the cultured cells was treated with a mixed drug obtained by mixing gossypol 5 μM and phenformin 100 μM, or gossypol 10 μM and phenformin 500 μM, and cultured in the same manner.
The subject of data set [5] is normal epithelial cell line IMR90. Put plainly: Annexin V-FITC/PI apoptosis detection by flow cytometry in normal cells. To be noted: gossypol 10 μM, phenformin 100 μM, alone or mixed; 24, 48 and 72 hours. Here is the method:
First, the normal epithelial cell line IMR90 was cultured. Then, the cultured cells were treated with a single drug of gossypol 10 μM or phenformin 100 μM, or a mixed drug obtained by mixing them, and culture was performed for 24, 48, and 72 hours in total. The medium was removed from the cultured cells, and the cultured cells were washed twice with cold PBS. Centrifugation was performed at 1,400 rpm for 3 minutes, and then a binding buffer solution was added thereto at a concentration of 1×10^6 cells/mL. […] of the buffer solution was transferred to a 5-mL culture tube, and 5 μl of each of Annexin V-FITC and propidium iodide (PI) was added thereto. The tube was slowly vortexed to perform mixing, and then incubated for 15 minutes in a dark room at room temperature. After the incubation, a binding buffer solution (400 μl) was added thereto and a level of increase in cell death was checked by flow cytometry.
A general note: Flow cytometry measures light scatter and fluorescence of single cells or particles in a stream.

The test system of data set [6] is pancreatic cancer cell lines Miapaca-2, Panc-1, Aspc-1, SNU-410, SNU-324, Bxpc-3. Put plainly: SRB assay, inhibitory effect of gossypol or phenformin alone on growth of pancreatic cancer cells. The note with it: for inhibitory effect on cell proliferation: 48 hours after treatment with the drug, applied alone; for proliferation of the cancer cells: gossypol or phenformin added alone to each type of the pancreatic cancer cells, SRB assay. The class given is cell-based.
Experimental: as §3

In data set [7] the test system is Miapaca2, Panc-1, or Aspc-1 cells. Put plainly: Intracellular ATP level (ATP Colorimetric/Fluorometric Analysis Kit). The class given is cell-based. The note with it: gossypol 5 μM, phenformin 500 μM, alone or mixed; compared with control group with no drug treatment. As for the experimental part: Then, an intracellular ATP level was checked with the ATP Colorimetric/Fluorometric Analysis Kit (BioVision, Milpitas, Calif., USA) according to the protocol provided by the manufacturer. The cultured cells were divided into 1×10^6 cells and 100 μl of ATP assay buffer was added thereto to dissolve the cells. Then, centrifugation was performed at 15,000×g for 2 minutes at 4° C., to separate only the supernatant. 2 to 50 μl of the separated supernatant was transferred to a 96-well plate, and then an ATP assay buffer was added to a final volume of 50 μl per well. Thereafter, an ATP reaction mixture containing 44 μl of ATP assay buffer, 2 μl of ATP probe, 2 μl of ATP converter, and 2 μl of developer mixture was added to the 96-well plate at 50 μl per well and mixing was performed.

Take `CCc1c2c(nc3ccc(OC(=O)N4CCC(N5CCCCC5)CC4)cc13)-c1cc3c(c(=O)n1C2)COC(=O)[C@]3(O)CC` [irinotecan]: the “proliferation level in pancreatic cancer cells” value in data set [1] is “significantly decreased”.
Take `Cc1cc2c(C(C)C)c(O)c(O)c(C=O)c2c(O)c1-c1c(C)cc2c(C(C)C)c(O)c(O)c(C=O)c2c1O` [gossypol]: in data set [2], the body weights result is recorded as “not significantly different”. Moreover, the “level of increase in tumor volume” value in data set [3] was “somewhat decreased”. In data set [4], the “inhibition of cell growth” value is recorded as “significant inhibition of cell growth was not exhibited”. Also, the “cell death over time in IMR90 normal cells” value in data set [5] is on record as “significant increase in cell death is not exhibited”. In addition, in data set [6], the “inhibitory effect on cell proliferation” value is reported as “complete inhibitory effect on cell proliferation” and the “proliferation of the cancer cells” value is “significantly inhibited”. For the same compound, the “intracellular ATP level” value in data set [7] is listed as “decreased”.
`[H]/N=C(/N)N/C(=N/[H])NCCc1ccccc1` [phenformin]: the “level of increase in tumor volume” value in data set [3] is “somewhat decreased”. In addition, the “inhibition of cell growth” value in data set [4] is reported as “significant inhibition of cell growth was not exhibited”. For the same compound, the “cell death over time in IMR90 normal cells” value in data set [5] is “significant increase in cell death is not exhibited”. Also, in data set [6], the “inhibitory effect on cell proliferation” value is “complete inhibitory effect on cell proliferation” and the “proliferation of the cancer cells” value was “significantly inhibited”. In data set [7], the “intracellular ATP level” value is given as “decreased”.

These data come from patent US11123314B2 (NATIONAL CANCER CENTER, priority 2017, dated 2021).
